The test system of test [1] is neuroinflammatory and neuropathic pain rodent models. As to conditions: cited from earlier work.
The target of the next test is T1, AC1 (Homo sapiens, UniProt Q08828).
T1 construct: expressed in transfected cells
The test is described as follows: Inhibition of A23187-mediated (Ca2+-stimulated) cAMP accumulation in HEK cells stably expressing AC1. The class given is cell-based. To be noted: for inhibition at 4 µM / inhibition at 40 µM: HEK293, read-out: AC1 Inhibition Percentage; for inhibition at 4 µM: 4 μM compound; for inhibition at 40 µM: 40 μM compound; for IC50: HEK cells stably expressing AC1, inhibitors 30 min, then 3 μM A23187 with IBMX, average and S.E.M. of at least three independent experiments, read-out: IC50 for inhibition of the A23187-mediated cAMP response of AC1. The protocol:
HEK cells stably expressing AC1 were treated with inhibitors for 30 min, and subsequently incubated with 3 μM A23187 in the presence of 2 mM IBMX. Data represent the average and S.E.M. of at least three independent experiments.
A23187 is a Ca2+ ionophore, which promotes Ca2+ binding to calmodulin in the cells and, subsequent stimulation of AC1.
HEK (human embryonic kidney) cells stably expressing human AC1, were cultured in Dubelcco's Modified Eagle Medium (Life Technologies, Grand Island, N.Y.) supplemented with 5% bovine calf serum (Hyclone, Logan, Utah), 5% fetal clone I (Hyclone, Logan, Utah), Antibiotic-Antimycotic (Life Technologies, Grand Island, N.Y.), and G418 (Invivogen, San Diego, Calif.). The cells were grown to confluency in 15 cm disses, harvested using Cell Dissociation Buffer (Life Technologies, Grand Island, N.Y.), and resuspended in 4 ml of fetal bovine serum (Hyclone, Logan, Utah) containing 10% dimethyl sulfoxide (Sigma-Aldrich, St. Louis, Mo.). 1 ml of cell suspension was added to cryovials that were incubated overnight at −80° C. in a CoolCell device (BioCision, Larkspur, Calif.) for cryopreservation. On the following day, cryovials were stored in liquid N2 until the assay day.
Cryopreserved HEK-AC1 cells were thawed in a 37° C. water-bath, resuspended in 10 ml optiMEM (Life Technologies, Grand Island, N.Y.) and centrifuged at 500×g for 5 min. The cells were resuspended in 10 ml optiMEM and the centrifugation step was repeated. Cells were then resuspended in 1 ml optiMEM and counted using a Countess automated cell counter (Life Technologies, Grand Island, N.Y.). Cells were added to a white, flat bottom, low-volume, tissue culture-treated 384 well plate (PerkinElmer, Shelton, Conn.) at a final density of 2500 cells/well. The plate was centrifuged for 1 min at 100×g and incubated in a 37° C. humidified incubator for 1 h. […] Following this incubation A23187 (Sigma-Aldrich, St. Louis, Mo.) (3 μM final concentration) containing 3-isobutyl-1-methylxanthine (Sigma-Aldrich, St. Louis, Mo.) (0.5 mM final concentration) was added. The plate was centrifuged for 1 min at 100×g and incubated at room temperature for 1 h. Cyclic AMP accumulation was measured using Cisbio's dynamic 2 kit (Cisbio Bioassays, Bedford, Mass.) according to the manufacturer's instructions. Plates were analyzed for fluorescent emissions at 620 nm and 665 nm using 330 nm as the excitation wavelength in a Cytation 3 Cell Imaging Multi-Mode Reader (Biotek, Winooski, Vt.), and ratiometric analysis was carried out by dividing the 665 nm emissions by the 620 nm emissions to extrapolate the cAMP concentrations from a cAMP standard curve. The data represent the average of at least three independent experiments ran in duplicate.
(Cyclic AMP is a second messenger, typically raised through Gs and lowered through Gi signalling.)

Drawing on patent US10100001B2, “Adenylyl cyclase inhibitors for neuropathic and inflammatory pain” (Purdue Research Foundation, priority 2015, dated 2018), this text covers analgesic effects, inhibition and IC50 for 20 compounds.

Each structure is given as a SMILES string.

T1 sequence (Q08828 whole entry): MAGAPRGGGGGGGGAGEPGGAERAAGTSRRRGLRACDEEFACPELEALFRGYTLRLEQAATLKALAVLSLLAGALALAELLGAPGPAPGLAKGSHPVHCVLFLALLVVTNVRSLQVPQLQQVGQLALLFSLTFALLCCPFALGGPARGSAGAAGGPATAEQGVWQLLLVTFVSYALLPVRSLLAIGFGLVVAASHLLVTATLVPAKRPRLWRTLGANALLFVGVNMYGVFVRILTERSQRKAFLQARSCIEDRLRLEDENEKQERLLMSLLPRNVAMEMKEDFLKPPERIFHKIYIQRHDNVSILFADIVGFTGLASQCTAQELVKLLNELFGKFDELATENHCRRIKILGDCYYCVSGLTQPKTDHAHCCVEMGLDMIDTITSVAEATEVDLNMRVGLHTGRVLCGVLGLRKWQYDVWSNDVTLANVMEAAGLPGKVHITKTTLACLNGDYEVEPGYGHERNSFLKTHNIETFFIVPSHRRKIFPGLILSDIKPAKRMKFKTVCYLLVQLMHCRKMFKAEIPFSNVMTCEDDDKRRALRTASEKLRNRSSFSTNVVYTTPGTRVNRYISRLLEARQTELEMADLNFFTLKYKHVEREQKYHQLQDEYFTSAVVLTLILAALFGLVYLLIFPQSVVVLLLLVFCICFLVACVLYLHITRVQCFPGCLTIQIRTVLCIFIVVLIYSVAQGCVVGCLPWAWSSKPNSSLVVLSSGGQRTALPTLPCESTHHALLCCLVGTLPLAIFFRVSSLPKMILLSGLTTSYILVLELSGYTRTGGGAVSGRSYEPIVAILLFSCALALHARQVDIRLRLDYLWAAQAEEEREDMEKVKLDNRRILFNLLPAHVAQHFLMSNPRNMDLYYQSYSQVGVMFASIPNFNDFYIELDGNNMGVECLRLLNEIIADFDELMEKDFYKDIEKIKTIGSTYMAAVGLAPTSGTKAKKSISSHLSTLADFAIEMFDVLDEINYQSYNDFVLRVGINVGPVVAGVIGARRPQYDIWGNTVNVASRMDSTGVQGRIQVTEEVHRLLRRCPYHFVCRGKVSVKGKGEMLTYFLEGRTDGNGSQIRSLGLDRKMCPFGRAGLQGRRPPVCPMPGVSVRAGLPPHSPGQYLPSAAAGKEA

As to `Nc1ncnc2c1ncn2CCNCCCCCO` [NB001], the analgesic effects entry in test [1] is on record as “analgesic effects”.
`Fc1ccc(CN(C/C=C/c2ccccc2)CCc2c[nH]c3ccccc23)cc1` [Compound 7bb, (E)-N-(2-(1H-indol-3-yl)ethyl)-N-(4-fluorobenzyl)-3-phenylprop-2-en-1-amine]: on AC1, the inhibition at 4 µM was determined as 31% and the inhibition at 40 µM amounted to 96%.
As for `CN(C/C=C/c1cccc([N+](=O)[O-])c1)Cc1cccc2ccccc12` [Compound 7fl, (E)-N-methyl-N-(naphthalen-1-ylmethyl)-3-(3-nitrophenyl)prop-2-en-1-amine], at AC1, the inhibition at 4 µM is -28% and the inhibition at 40 µM is 62%.
`Fc1ccc(/C=C/CN(CCc2c[nH]c3ccccc23)Cc2ccccc2)cc1` [Compound 7ae, (E)-N-(2-(1H-indol-3-yl)ethyl)-N-benzyl-3-(4-fluorophenyl)prop-2-en-1-amine]: on AC1, the inhibition at 4 µM stood at 47%, the inhibition at 40 µM is 91% and the IC50 was 12.9 µM.
With `CN(C/C=C/c1ccc(Br)cc1)Cc1cccc2ccccc12` [Compound 7fg, (E)-3-(4-bromophenyl)-N-methyl-N-(naphthalen-1-ylmethyl)prop-2-en-1-amine], at AC1, the inhibition at 4 µM is -61% and the inhibition at 40 µM is 93%.
`Cc1ccc(/C=C/CN(C)Cc2cccc3ccccc23)cc1` [Compound 7fa, (E)-N-methyl-N-(naphthalen-1-ylmethyl)-3-p-tolylprop-2-en-1-amine]: at AC1, the inhibition at 4 µM was -26% and the inhibition at 40 µM was 95%.
Turning to `COc1ccc2c(c1)C(c1ccccc1)CN(C/C=C/c1ccc(I)cc1)CC2` (stereo not shown) [Compound 7jc, (E)-3-(3-(4-iodophenyl)allyl)-8-methoxy-1-phenyl-2,3,4,5-tetrahydro-1H-benzo[d]azepine], at AC1, the inhibition at 4 µM is -3% and the inhibition at 40 µM was 51%.
Regarding `Ic1ccc(/C=C/CN(CCc2c[nH]c3ccccc23)Cc2ccccc2)cc1` [Compound 7ad, (E)-N-(2-(1H-indol-3-yl)ethyl)-N-benzyl-3-(4-iodophenyl)prop-2-en-1-amine], on AC1, the inhibition at 4 µM was 59%, the inhibition at 40 µM is 93% and the IC50 turned out to be 10.2 µM.
For `COc1ccc(/C=C/CN(C)Cc2cccc3ccccc23)cc1` [Compound 7fj, (E)-3-(4-methoxyphenyl)-N-methyl-N-(naphthalen-1-ylmethyl)prop-2-en-1-amine], on AC1, the inhibition at 4 µM was -14% and the inhibition at 40 µM turned out to be 82%.
As for `C(=C\c1ccccc1)/CN(CCc1c[nH]c2ccccc12)Cc1ccccc1` [Compound 7aa, (E)-N-(2-(1H-indol-3-yl)ethyl)-N-benzyl-3-phenylprop-2-en-1-amine], at AC1, the inhibition at 4 µM was found to be 41%, the inhibition at 40 µM is 92% and the IC50 was determined as 9.92 µM.
For the compound `COc1ccc(/C=C/CN(C)Cc2cccc3ccccc23)cc1OC` [Compound 7fk, (E)-3-(3,4-dimethoxyphenyl)-N-methyl-N-(naphthalen-1-ylmethyl)prop-2-en-1-amine], at AC1, the inhibition at 4 µM is -14% and the inhibition at 40 µM worked out at 33%.
For `COc1ccc(CN(C/C=C/c2ccccc2)CCc2c[nH]c3ccccc23)cc1` [Compound 7ba, (E)-N-(2-(1H-indol-3-yl)ethyl)-N-(4-methoxybenzyl)-3-phenylprop-2-en-1-amine], in that order: 34% and 98%.
On to `COc1ccc2c(c1)C(c1ccccc1)CN(C/C=C/c1ccc(Cl)cc1)CC2` (stereo not shown) [Compound 7je, (E)-3-(3-(4-chlorophenyl)allyl)-8-methoxy-1-phenyl-2,3,4,5-tetrahydro-1H-benzo[d]azepine], for which, at AC1, the inhibition at 4 µM stood at 33%, the inhibition at 40 µM is 78% and the half-maximal inhibitory concentration (IC50) was found to be 9.1 µM.
Consider `Cc1ccccc1/C=C/CN(C)Cc1cccc2ccccc12` [Compound 7fc, (E)-N-methyl-N-(naphthalen-1-ylmethyl)-3-o-tolylprop-2-en-1-amine], for which, on AC1, the inhibition at 4 µM is -71% and the inhibition at 40 µM was determined as 77%.
As to `CN(C/C=C/c1ccc(Cl)cc1)Cc1cccc2ccccc12` [Compound 7ff, (E)-3-(4-chlorophenyl)-N-methyl-N-(naphthalen-1-ylmethyl)prop-2-en-1-amine], at AC1, the inhibition at 4 µM came out at 37% and the inhibition at 40 µM stood at 91%.
`Cc1ccc(S(=O)(=O)N2CCCN(C/C=C/c3ccccc3)CC2)cc1` [Compound 7ha, 1-cinnamyl-4-tosyl-1,4-diazepane]: on AC1, the inhibition at 4 µM turned out to be 6% and the inhibition at 40 µM was 73%.
Turning to `COc1ccc2c(c1)C(c1ccc(Br)cc1)CN(C/C=C/c1ccc(Cl)cc1)CC2` (stereo not shown) [Compound 7kc, (E)-1-(4-bromophenyl)-3-(3-(4-chlorophenyl)allyl)-8-methoxy-2,3,4,5-tetrahydro-1H-benzo[d]azepine], on AC1, the inhibition at 4 µM came out at 32% and the inhibition at 40 µM was found to be 32%.
As for `COC(=O)CCCN(C/C=C/c1ccc(C)cc1)Cc1ccc(F)cc1` [Compound 7gb, (E)-methyl 4-((4-fluorobenzyl)(3-p-tolylallyl)amino)butanoate], on AC1, the inhibition at 4 µM was -3% and the inhibition at 40 µM was 64%.
For the compound `Cc1cccc(/C=C/CN(CCc2c[nH]c3ccccc23)Cc2ccccc2)c1` [Compound 7ac, (E)-N-(2-(1H-indol-3-yl)ethyl)-N-benzyl-3-m-tolylprop-2-en-1-amine], on AC1, the inhibition at 4 µM was found to be 18% and the inhibition at 40 µM was found to be 93%.
Take `FC(F)(F)c1ccc(/C=C/CN(CCc2c[nH]c3ccccc23)Cc2ccccc2)cc1` [Compound 7ah, (E)-N-(2-(1H-indol-3-yl)ethyl)-N-benzyl-3-(4-(trifluoromethyl)phenyl)prop-2-en-1-amine]: on AC1, the inhibition at 4 µM amounted to 24% and the inhibition at 40 µM amounted to 96%.

As usually defined, the inhibition is the change of the read-out against control, counted positive when it falls. The term IC50 denotes the concentration that gives 50% inhibition.
